Test results published in patent publication US11524940B1, “Inhibitors of cysteine proteases and methods of use thereof” (priority 2020, dated 2022).

What was measured:
SARS-CoV2 Mpro = SARS-CoV2 Mpro (Severe acute respiratory syndrome coronavirus 2 (2019-nCoV) (SARS-CoV-2), UniProt P0DTD1); assay: COVID-19 (SARS-CoV2) Mpro enzymatic assay; format: biochemical; conditions: 25 nM Mpro, 25 μM substrate
229E Mpro = 229E Mpro (Human coronavirus 229E (HCoV-229E), UniProt P0C6X1); assay: 229E Mpro activity; format: biochemical; conditions: read-out: 229E Mpro EC50
Chain of 229E Mpro (P0C6X1 2966-3267 limits assumed): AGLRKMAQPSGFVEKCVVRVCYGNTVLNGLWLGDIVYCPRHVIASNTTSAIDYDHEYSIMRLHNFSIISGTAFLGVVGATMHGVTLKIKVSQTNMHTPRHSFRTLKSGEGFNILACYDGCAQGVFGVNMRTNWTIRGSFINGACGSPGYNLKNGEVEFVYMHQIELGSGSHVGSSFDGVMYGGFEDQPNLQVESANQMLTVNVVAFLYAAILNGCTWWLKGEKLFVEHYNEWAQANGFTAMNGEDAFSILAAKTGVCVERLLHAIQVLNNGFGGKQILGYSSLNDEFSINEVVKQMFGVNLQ
Experimental: Compounds are assayed using standard methods to assess compound activity and IC50. […] The assay buffer contains 20 mM of Tris-HCl (pH 7.3), 100 mM of NaCl, 1 mM of EDTA, 5mM of TCEP and 0.1% BSA.

## COc1cccc2[nH]c(C(=O)N[C@@H](CC3CC3)C(=O)N[C@H](C#N)Cc3ccccn3)cc12 [Compound 439, N-[(1S)-2-[[(1S)-1-cyano-2-(2-pyridyl)ethyl]amino]-1-(cyclopropylmethyl)-2-oxo-ethyl]-4-methoxy-1H-indole-2-carboxamide]
SARS-CoV2 Mpro
  IC50: 10 to 30 µM
229E Mpro
  EC50: > 30 µM

## CC1(C)CC(C[C@@H](C#N)NC(=O)C2CC3(CCCCC3)CN2C(=O)c2cc3cccc(Cl)c3[nH]2)C(=O)N1 (single isomer, unassigned) [930 (Isomer 1)]
SARS-CoV2 Mpro
  IC50: 10 to 30 µM
229E Mpro
  EC50: > 30 µM

## N#C[C@H](C[C@@H]1CCCNC1=O)NC(=O)C1CC2(CCC2)CN1C(=O)c1cc2c(Cl)cccc2[nH]1 (single isomer, unassigned) [803 (Isomer 3)]
SARS-CoV2 Mpro
  IC50: < 2 µM
229E Mpro
  EC50: < 2 µM

## COc1cc(Cl)c2[nH]c(C(=O)N3CC4(CCCCC4)CC3C(=O)N[C@H](C#N)C[C@@H]3CCCNC3=O)cc2c1 (single isomer, unassigned) [1147A (Isomer 1)]
SARS-CoV2 Mpro
  IC50: < 2 µM
229E Mpro
  EC50: < 2 µM

## N#C[C@H](C[C@@H]1CCCNC1=O)NC(=O)C1CC2(CCCCC2)CN1C(=O)c1cc2ccc(Cl)cc2[nH]1 (single isomer, unassigned) [733 (Isomer 2)]
SARS-CoV2 Mpro
  IC50: 2 to 10 µM
229E Mpro
  EC50: 2 to 10 µM

## N#C[C@H](C[C@@H]1CCNC1=O)NC(=O)C1CC2(CCC2)CN1C(=O)c1cc2cccc(Cl)c2[nH]1 (single isomer, unassigned) [988 (Isomer 1)]
SARS-CoV2 Mpro
  IC50: > 30 µM
229E Mpro
  EC50: > 30 µM

## COc1cccc2[nH]c(C(=O)N[C@@H](CC3CC3)C(=O)N[C@@]3(C#N)C[C@@H]4CC[C@H]3[C@@H]3C(=O)NC(=O)[C@H]43)cc12 (single isomer, unassigned) [489 (Isomer 2)]
SARS-CoV2 Mpro
  IC50: > 30 µM
229E Mpro
  EC50: > 30 µM

## CC1(C)CC(C[C@@H](C#N)NC(=O)C2CC3(CCCCC3)CN2C(=O)c2cc3cccc(Cl)c3[nH]2)C(=O)N1 (single isomer, unassigned) [930 (Isomer 3.2)]
SARS-CoV2 Mpro
  IC50: 2 to 10 µM
229E Mpro
  EC50: 10 to 30 µM

## CC[C@H]1CN(C(=O)c2cc3c(OC)cccc3[nH]2)[C@@H]1C(=O)N[C@H](C#N)C[C@@H]1CCNC1=O [Compound 391, (2S,3S)-N-((S)-1-cyano-2-((S)-2-oxopyrrolidin-3-yl)ethyl)-3-ethyl-1-(4-methoxy-1H-indole-2-carbonyl)azetidine-2-carboxamide]
229E Mpro
  EC50: > 30 µM

## N#C[C@H](C[C@@H]1CCNC1=O)NC(=O)[C@H](CC1CC1)n1ccc2[nH]cnc2c1=O [Compound 269, (2S)-N-[(1S)-1-cyano-2-[(3S)-2-oxopyrrolidin-3-yl]ethyl]-3-cyclopropyl-2-(4-oxo-3H-imidazo[4,5-c]pyridin-5-yl)propanamide]
229E Mpro
  EC50: > 30 µM

## CC1(C)CC(C[C@@H](C#N)NC(=O)[C@H](CC2CC2)NC(=O)c2cc3cccc(Cl)c3[nH]2)C(=O)N1 (single isomer, unassigned) [1053 (Isomer 4)]
SARS-CoV2 Mpro
  IC50: < 2 µM

## COc1cccc2[nH]c(C(=O)N3CCC4(CC4)C[C@H]3C(=O)N[C@H](C#N)C[C@@H]3CCNC3=O)cc12 [Compound 183, (S)-N-((S)-1-cyano-2-((S)-2-oxopyrrolidin-3-yl)ethyl)-6-(4-methoxy-1H-indole-2-carbonyl)-6-azaspiro[2.5]octane-5-carboxamide]
229E Mpro
  EC50: 2 to 10 µM

## COc1cccc2[nH]c(C(=O)N3C[C@H](SC)C[C@H]3C(=O)N[C@H](C#N)C[C@@H]3CCNC3=O)cc12 [Compound 551, (2S,4R)-N-[(1S)-1-cyano-2-[(3S)-2-oxopyrrolidin-3-yl]ethyl]-1-(4-methoxy-1H-indole-2-carbonyl)-4-methylsulfanyl-pyrrolidine-2-carboxamide]
229E Mpro
  EC50: < 2 µM

## COc1cccc2[nH]c(C(=O)N[C@@H](CC3CC3)C(=O)N[C@](C)(C#N)CC3CCNC3=O)cc12 (single isomer, unassigned) [1055 (Isomer 1)]
229E Mpro
  EC50: > 30 µM

## N#C[C@H](C[C@@H]1CCNC1=O)NC(=O)C1CC2(CCCCC2)CN1C(=O)c1cc2cccc(Cl)c2[nH]1 (single isomer, unassigned) [984 (Isomer 2)]
229E Mpro
  EC50: > 30 µM

## COc1cccc2[nH]c(C(=O)N3CC(C)(C)C[C@H]3C(=O)N[C@H](C#N)C[C@@H]3CCNC3=O)cc12 (single isomer, unassigned) [395 (Isomer 2)]
229E Mpro
  EC50: < 2 µM

## COc1cccc2[nH]c(C(=O)N[C@@H](CC(C)C)C(=O)N[C@H](C#N)Cc3cncn3C)cc12 [Compound 225]
229E Mpro
  EC50: > 30 µM

## COc1cccc2[nH]c(C(=O)N3CC(C45CC(C4)C5)C[C@H]3C(=O)N[C@H](C#N)C[C@@H]3CCNC3=O)cc12 (single isomer, unassigned) [385 (Isomer 2)]
229E Mpro
  EC50: < 2 µM

## COc1cccc2[nH]c(C(=O)N3C[C@H](c4ccccc4)C[C@H]3C(=O)N[C@H](C#N)C[C@@H]3CCCNC3=O)cc12 [Compound 611, (2S,4S)-N-[(1S)-1-cyano-2-[(3S)-2-oxo-3-piperidyl]ethyl]-1-(4-methoxy-1H-indole-2-carbonyl)-4-phenyl-pyrrolidine-2-carboxamide]
229E Mpro
  EC50: < 2 µM

## N#C[C@H](C[C@@H]1CCNC1=O)NC(=O)[C@@H]1C[C@@H](c2ccccc2)CN1C(=O)/C=C/c1ccc(Cl)cc1F [Compound 209, (2S,4S)-1-((E)-3-(4-chloro-2-fluorophenyl)acryloyl)-N-((S)-1-cyano-2-((S)-2-oxopyrrolidin-3-yl)ethyl)-4-phenylpyrrolidine-2-carboxamide]
229E Mpro
  EC50: 2 to 10 µM

## CC(C)(C)OC(=O)Nc1cccn([C@@H](CC2CC2)C(=O)N[C@H](C#N)C[C@@H]2CCNC2=O)c1=O (single isomer, unassigned) [505 (Isomer 2)]
229E Mpro
  EC50: > 30 µM

## COc1cccc2[nH]c(C(=O)N[C@@H](CC(C)C)C(=O)N[C@@H](C[C@@H]3CCNC3=O)C3OC(=O)N(c4ccccc4)C3=N)cc12 (stereo partly drawn) [Compound 359, N-[(1S)-1-[[(1S)-1-(4-imino-2-oxo-3-phenyl-oxazolidin-5-yl)-2-[(3S)-2-oxopyrrolidin-3-yl]ethyl]carbamoyl]-3-methyl-butyl]-4-methoxy-1H-indole-2-carboxamide]
229E Mpro
  EC50: 10 to 30 µM

## N#C[C@H](C[C@@H]1CCNC1=O)NC(=O)[C@H](CC1CC1)NC(=O)c1nc2c(Cl)cc(Cl)cc2[nH]1 [Compound 525, 4,6-dichloro-N-[(1S)-2-[[(1S)-1-cyano-2-[(3S)-2-oxopyrrolidin-3-yl]ethyl]amino]-1-(cyclopropylmethyl)-2-oxo-ethyl]-1H-benzimidazole-2-carboxamide]
229E Mpro
  EC50: < 2 µM

## COc1cccc2[nH]c(C(=O)N3CC4(CCCC4)C[C@H]3C(=O)N[C@H](C#N)C[C@@H]3CCNC3=O)cc12 (single isomer, unassigned) [401 (Isomer 1)]
229E Mpro
  EC50: < 2 µM

## COc1cccc2[nH]c(C(=O)N[C@@H](CC(C)(C)F)C(=O)N[C@H](C#N)C[C@@H]3CCCNC3=O)cc12 [Compound 667, N-[(1S)-1-[[(1S)-1-cyano-2-[(3S)-2-oxo-3-piperidyl]ethyl]carbamoyl]-3-fluoro-3-methyl-butyl]-4-methoxy-1H-indole-2-carboxamide]
229E Mpro
  EC50: < 2 µM

## N#C[C@H](C[C@@H]1CCNC1=O)NC(=O)C1CC2(CCCCC2)CN1C(=O)c1cc2cccc(Cl)c2[nH]1 (single isomer, unassigned) [984 (Isomer 1)]
229E Mpro
  EC50: < 2 µM

## COc1cccc2[nH]c(C(=O)N[C@@H](CC(C)C)C(=O)N[C@@H](C[C@@H]3CCNC3=O)C(C#N)N3CCCC3)cc12 (single isomer, unassigned) [331 (Isomer 2)]
229E Mpro
  EC50: < 2 µM

## COc1cccc2[nH]c(C(=O)N[C@@H](CC3CC3)C(=O)N[C@@H](C#N)C[C@@H]3CCCNC3=O)cc12 [Compound 491B]
229E Mpro
  EC50: 10 to 30 µM
